Laboratory results from paper PMC3809078 (Journal of natural products, 2013).

How the values were obtained:
MDA-MB-231 cells = assay: Cell proliferation/viability assay; assay type: cell-based, human
T47D cells = assay: Cell proliferation/viability assay; assay type: cell-based, human
[1] = tested on: retinoic acid receptors (RARs); conditions: cytotoxic activity attributed to it; cited from earlier work

## CC(=O)O[C@H](C/C=C(\C)CC/C=C(\C)CCC1=C(C)CCC(=O)C1(C)C)C1=CC(=O)OC1 [Compound 2, 4-acetoxythorectidaeolide A]
MDA-MB-231 cells
  effect on cell viability (in words): Neither 1, nor 2, or any of the other less active sesterterpenes suppressed
T47D cells
  effect on cell viability (in words): Neither 1, nor 2, or any of the other less active sesterterpenes suppressed

## CC1=C(CC/C(C)=C/CC/C(C)=C/CCC2=CC(=O)OC2O)C(C)(C)CCC1 (stereo not shown) [Compound 11, luffariellolide]
[1]
  action on retinoic acid receptors (in words): agonist of retinoic acid receptors
MDA-MB-231 cells
  effect on cell viability (in words): significant level of cytotoxicity
T47D cells
  effect on cell viability (in words): significant level of cytotoxicity

## CC1=C(CC/C(C)=C/CC/C(C)=C/C[C@@H](O)C2=CC(=O)OC2)C(C)(C)C(=O)CC1 [Compound 1, thorectidaeolide A]
MDA-MB-231 cells
  effect on cell viability (in words): Neither 1, nor 2, or any of the other less active sesterterpenes suppressed
T47D cells
  effect on cell viability (in words): Neither 1, nor 2, or any of the other less active sesterterpenes suppressed
